Columns and labels:
Test in all cases: NCI one-dose SRB anti-proliferative screen
Format in all cases: cell-based
NCI-H460 = settings: Homo sapiens; NCI-H460, Non-Small Cell Lung Cancer; NCI one dose; read-out: Cell growth inhibition %
In short: (§1)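 Single dose, 10 µM; SRB colorimetric read-out; run as part of the 60-line, nine-subpanel tumour panel.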

786-0 = settings: Homo sapiens; 786-0, Renal cancer; NCI one dose; read-out: Cell growth inhibition %
In short: as §1

UACC-257 = settings: Homo sapiens; UACC-257, Melanoma; NCI one dose; read-out: Cell growth inhibition %
In short: as §1

U251 = settings: Homo sapiens, U-251; U251, CNS Cancer; NCI one dose; read-out: Cell growth inhibition %
In short: as §1

UO-31 = settings: Homo sapiens; UO-31, Renal cancer; NCI one dose; read-out: Cell growth inhibition %
In short: as §1

CAKI-1 = settings: Homo sapiens; CAKI-1, Renal cancer; NCI one dose; read-out: Cell growth inhibition %
In short: as §1

DU-145 = settings: Homo sapiens; DU-145, Prostate Cancer; NCI one dose; read-out: Cell growth inhibition %
In short: as §1

ACHN = settings: Homo sapiens; ACHN, Renal cancer; NCI one dose; read-out: Cell growth inhibition %
In short: as §1

CCRF-CEM = settings: Homo sapiens; CCRF-CEM, Leukemia; NCI one dose; read-out: Cell growth inhibition %
In short: as §1

OVCAR-5 = settings: Homo sapiens; OVCAR-5, Ovarian Cancer; NCI one dose; read-out: Cell growth inhibition %
In short: as §1

HT29 = settings: Homo sapiens, HT-29; HT29, Colon cancer; NCI one dose; read-out: Cell growth inhibition %
In short: as §1

SF-295 = settings: Homo sapiens; SF-295, CNS Cancer; NCI one dose; read-out: Cell growth inhibition %
In short: as §1

SN12C = settings: Homo sapiens, SN 12C, Renal cancer, NCI one dose, read-out: Cell growth inhibition %
In short: as §1

PC-3 = settings: Homo sapiens; PC-3, Prostate Cancer; NCI one dose; read-out: Cell growth inhibition %
In short: as §1

KM12 = settings: Homo sapiens; KM12, Colon cancer; NCI one dose; read-out: Cell growth inhibition %
In short: as §1

OVCAR-3 = settings: Homo sapiens; OVCAR-3, Ovarian Cancer; NCI one dose; read-out: Cell growth inhibition %
In short: as §1

IGROV1 = settings: Homo sapiens, IGROV-1; IGROV1, Ovarian Cancer; NCI one dose; read-out: Cell growth inhibition %
In short: as §1

HCT-15 = settings: Homo sapiens; HCT-15, Colon cancer; NCI one dose; read-out: Cell growth inhibition %
In short: as §1

OVCAR-8 = settings: Homo sapiens; OVCAR-8, Ovarian Cancer; NCI one dose; read-out: Cell growth inhibition %
In short: as §1

SK-OV-3 = settings: Homo sapiens; SK-OV-3, Ovarian Cancer; NCI one dose; read-out: Cell growth inhibition %
In short: as §1

RPMI-8226 = settings: Homo sapiens; RPMI-8226, Leukemia; NCI one dose; read-out: Cell growth inhibition %
In short: as §1

OVCAR-4 = settings: Homo sapiens; OVCAR-4, Ovarian Cancer; NCI one dose; read-out: Cell growth inhibition %
In short: as §1

BT-549 = settings: Homo sapiens; BT-549, Breast cancer; NCI one dose; read-out: Cell growth inhibition %
In short: as §1

NCI-H226 = settings: Homo sapiens; NCI-H226, Non-Small Cell Lung Cancer; NCI one dose; read-out: Cell growth inhibition %
In short: as §1

SK-MEL-2 = settings: Homo sapiens; SK-MEL-2, Melanoma; NCI one dose; read-out: Cell growth inhibition %
In short: as §1

NCI-H23 = settings: Homo sapiens; NCI-H23, Non-Small Cell Lung Cancer; NCI one dose; read-out: Cell growth inhibition %
In short: as §1

SW-620 = settings: Homo sapiens; SW-620, Colon cancer; NCI one dose; read-out: Cell growth inhibition %
In short: as §1

HS 578T = settings: Homo sapiens; HS 578T, Breast cancer; NCI one dose; read-out: Cell growth inhibition %
In short: as §1

LOX IMVI = settings: Homo sapiens; for inhibition at 10 µM: Melanoma, NCI one dose, read-out: Cell growth inhibition %
In short: as §1

MDA-MB-468 = settings: Homo sapiens; MDA-MB-468, Breast cancer; NCI one dose; read-out: Cell growth inhibition %
In short: as §1

SR = settings: Homo sapiens; SR, Leukemia; NCI one dose; read-out: Cell growth inhibition %
In short: as §1

MCF7 = settings: Homo sapiens; MCF7, Breast cancer; NCI one dose; read-out: Cell growth inhibition %
In short: as §1

Compound	inhibition at 10 µM (NCI-H460)	inhibition at 10 µM (786-0)	inhibition at 10 µM (UACC-257)	inhibition at 10 µM (U251)	inhibition at 10 µM (UO-31)	inhibition at 10 µM (CAKI-1)	inhibition at 10 µM (DU-145)	inhibition at 10 µM (ACHN)	inhibition at 10 µM (CCRF-CEM)	inhibition at 10 µM (OVCAR-5)	inhibition at 10 µM (HT29)	inhibition at 10 µM (SF-295)	inhibition at 10 µM (SN12C)	inhibition at 10 µM (PC-3)	inhibition at 10 µM (KM12)	inhibition at 10 µM (OVCAR-3)	inhibition at 10 µM (IGROV1)	inhibition at 10 µM (HCT-15)	inhibition at 10 µM (OVCAR-8)	inhibition at 10 µM (SK-OV-3)	also measured
COc1ccc(/C=C/C(=O)c2ccc(NC(=O)CSc3nnc(-c4ccc5[nH]c(-c6ccc(OC)cc6)nc5c4)o3)cc2)cc1 [Compound 7m, 2-{5-[2-(4-Methoxyphenyl)-1 H-benzo[d]imidazol-5-yl]-1,3,4-oxadiazol-2-ylthio}-N-{4-[(E)-3-(4-methoxyphenyl)acryloyl]phenyl}acetamide]	1.44%	0%	0%	15.9%	7.02%	6.15%	0%	0%	38.5%	0%	0%	2.1%	23.1%	14.7%	3.51%	3.65%	3.99%	4.27%	23.4%	0%	inhibition at 10 µM (RPMI-8226): 44.1%; inhibition at 10 µM (OVCAR-4): 6.89%; inhibition at 10 µM (BT-549): 14.3%; inhibition at 10 µM (NCI-H226): 16%; inhibition at 10 µM (SK-MEL-2): 0%; inhibition at 10 µM (NCI-H23): 9.57%; inhibition at 10 µM (SW-620): 2%; inhibition at 10 µM (HS 578T): 21.1%; inhibition at 10 µM (LOX IMVI): 81.5%; inhibition at 10 µM (MDA-MB-468): 0%; inhibition at 10 µM (SR): 40.5%; inhibition at 10 µM (MCF7): 17.2%
COc1ccc(-c2nc3cc(-c4nnc(SCC(=O)Nc5ccc(C(=O)/C=C/c6ccc(OC)c(OC)c6)cc5)o4)ccc3[nH]2)cc1 [Compound 7n, 2-{5-[2-(4-Methoxyphenyl)-1 H-benzo[d]imidazol-5-yl]-1,3,4-oxadiazol-2-ylthio}-N-{4-[(E)-3-(3,4-dimethoxyphenyl)acryloyl]phenyl}acetamide]	8.91%	8.7%	1.66%	25.3%	26.4%	1.11%	13.4%	10.7%	38.8%	0%	0%	0%	8.67%	2.83%	23.4%	14.3%	12.3%	31.8%	7.51%	0%	inhibition at 10 µM (RPMI-8226): 32.3%; inhibition at 10 µM (OVCAR-4): 13.2%; inhibition at 10 µM (BT-549): 1.04%; inhibition at 10 µM (NCI-H226): 3.76%; inhibition at 10 µM (SK-MEL-2): 6.27%; inhibition at 10 µM (NCI-H23): 19.9%; inhibition at 10 µM (SW-620): 13.6%; inhibition at 10 µM (HS 578T): 7.35%; activity at 10 µM (LOX IMVI; LOX IMVI (Melanoma), 10 µM one dose, read-out: Growth Percent): 44%; inhibition at 10 µM (LOX IMVI): 56.1%; inhibition at 10 µM (MDA-MB-468): 10.7%; inhibition at 10 µM (SR): 73.6%; inhibition at 10 µM (MCF7): 55.5%
COc1ccc(-c2nc3cc(-c4nnc(SCC(=O)Nc5ccc(C(=O)/C=C/c6cc(OC)c(OC)c(OC)c6)cc5)o4)ccc3[nH]2)cc1 [Compound 7o, 2-{5-[2-(4-Methoxyphenyl)-1 H-benzo[d]imidazol-5-yl]-1,3,4-oxadiazol-2-ylthio}-N-{4-[(E)-3-(3,4,5-trimethoxyphenyl)acryloyl]phenyl}acetamide]	0%	0%	0%	3.23%	12.2%	1.83%	0%	0%	0%	0%	0%	0%	0%	0%	0%	0%	0%	0%	0%	0%	inhibition at 10 µM (RPMI-8226): 23.2%; inhibition at 10 µM (OVCAR-4): 0%; inhibition at 10 µM (BT-549): 0%; inhibition at 10 µM (NCI-H226): 2.19%; inhibition at 10 µM (SK-MEL-2): 0%; inhibition at 10 µM (NCI-H23): 0%; inhibition at 10 µM (SW-620): 0%; inhibition at 10 µM (HS 578T): 0%; inhibition at 10 µM (LOX IMVI): 22.9%; inhibition at 10 µM (MDA-MB-468): 0%; inhibition at 10 µM (SR): 15.2%; inhibition at 10 µM (MCF7): 18.4%
